Measurements: US20250340538A1, “IMIDAZOLONE DERIVATIVES AS INHIBITORS OF PROTEIN KINASES IN PARTICULAR DYRK1A, CLK1 AND/OR CLK4” (PERHA PHARMACEUTICALS, priority 2021, published 2025)
Structures can show the parent of a compound that is named as a salt. Where two headings read alike, the source gives them in different places.

Legend:
DYRK1A = molecular target: T1, DYRK1A (Homo sapiens, UniProt Q13627); test: Radiometric protein kinase assay (33PanQinase Activity Assay), DYRK1A; type: biochemical; details: for Selectivity Class DYRK1A vs. CLK1: ratio of IC50 on CLK1 over IC50 on DYRK1A; for Selectivity Class DYRK1A vs. DYRK1B: ratio of IC50 on DYRK1B over IC50 on DYRK1A
T1 construct: GST-fusion or His-tag (not specified per kinase); purchased ProQinase GmbH; host or cells: Sf9 insect cells or E. coli (not specified per kinase)
Method: The IC50 profile of all compounds was determined using 12 protein kinases (CDK2/cyclin E, CK1ε, CLK1, 2, 3, 4, DYRK1A, 1B, 2, 3, 4, GSK3β).
(§1) The compounds were provided as […] in 100% DMSO. Prior to testing, the 1 μM stock solutions were subjected to a serial, semi-logarithmic dilution using 100% DMSO as a solvent. […] In the process, 90 μl H2O were added to each well of each compound dilution plate. To minimize potential precipitation, the H2O was added to each plate only a few minutes before the transfer of the compound solutions into the assay plates. The plate was shaken thoroughly, resulting in a compound dilution plate/10% DMSO.
(§2) For the assays (see below), 5 μL solution from each well of the compound dilution plates/10% DMSO were transferred into the assay plates. The final volume of the assay was 50 μL. All compounds were tested at 10 final assay concentrations in the range from 10 μM to 30 nM. The final DMSO concentration in the reaction cocktails was 1% in all cases.
(§3) All protein kinases provided by ProQinase were expressed in Sf9 insect cells or in E. coli as recombinant GST-fusion proteins or His-tagged proteins, either as full-length or enzymatically active fragments. All kinases were produced from human cDNAs and purified by either GSH-affinity chromatography or immobilized metal. Affinity tags were removed from a number of kinases during purification. The purity of the protein kinases was examined by SDS-PAGE/Coomassie staining, the identity was checked by mass spectroscopy.
(§4) A radiometric protein kinase assay (33PanQinase® Activity Assay) was used for measuring the kinase activity of the 12 protein kinases. All kinase assays were performed in 96-well FlashPlates™ from PerkinElmer (Boston, MA, USA) in a 50 μL reaction volume. The reaction cocktail was pipetted in four steps in the following order: • 25 μL of assay buffer (standard buffer/[γ-^33P]-ATP), • 10 μL of ATP solution (in H2O), • 5 μL of test compound (in 10% DMSO), • 10 μL of enzyme/substrate mixture.
(§5) The reaction cocktails were incubated at 30° C. for 60 minutes. The reaction was stopped with 50 μL of 2% (v/v) H3PO4, plates were aspirated and washed two times with 200 μL 0.9% (w/v) NaCl. Incorporation of ^33Pi was determined with a microplate scintillation counter (Microbeta, Wallac). The IC50 values for all compounds were calculated from the dose response curves

CLK1 = molecular target: T2, CLK1 (Homo sapiens, UniProt P49759); test: Radiometric protein kinase assay (33PanQinase Activity Assay), CLK1; type: biochemical; details: read-out: Potency Class CLK1
T2 construct: GST-fusion or His-tag (not specified per kinase); purchased ProQinase GmbH; host or cells: Sf9 insect cells or E. coli (not specified per kinase)
T2 sequence (P49759 whole entry, the tested form may be a part): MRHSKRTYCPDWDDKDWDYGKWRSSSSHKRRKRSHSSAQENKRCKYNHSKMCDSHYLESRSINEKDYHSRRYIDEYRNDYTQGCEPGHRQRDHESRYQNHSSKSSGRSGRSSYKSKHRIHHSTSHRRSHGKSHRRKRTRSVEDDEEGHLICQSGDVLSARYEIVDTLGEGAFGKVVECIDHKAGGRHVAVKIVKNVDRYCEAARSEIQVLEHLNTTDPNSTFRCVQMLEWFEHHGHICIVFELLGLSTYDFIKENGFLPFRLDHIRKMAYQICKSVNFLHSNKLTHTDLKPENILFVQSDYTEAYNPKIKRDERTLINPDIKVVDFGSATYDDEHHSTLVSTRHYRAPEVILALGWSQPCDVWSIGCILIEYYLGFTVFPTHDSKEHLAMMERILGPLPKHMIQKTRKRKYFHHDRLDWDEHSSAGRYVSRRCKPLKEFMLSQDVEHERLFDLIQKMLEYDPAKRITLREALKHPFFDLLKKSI
Method: Assays were performed by ProQinase GmbH (Engesserstr. 4, D-79108 Freiburg, Germany. www.proqinase.com). The IC50 profile of all compounds was determined using 12 protein kinases (CDK2/cyclin E, CK1ε, CLK1, 2, 3, 4, DYRK1A, 1B, 2, 3, 4, GSK3β).
as §1, §2, §3, §4, §5
As a parameter for assay quality, the Z′-factor (Zhang et al., J. Biomol. Screen. 2: 67-73, 1999) for the low and high controls of each assay plate (n=8) was used. ProQinase's criterion for repetition of an assay plate is a Z′-factor below 0.4 (Iversen et al., J. Biomol. Screen. 3: 247-252, 2006).

[1] = class by IC50 on DYRK1A, from dose-response curves, read-out: Potency Class DYRK1A
[2] = class by IC50 on CLK1, from dose-response curves

IC50 (DYRK1A; IC50 class A to E, read-out: Potency Class DYRK1A) | IC50 (DYRK1A; [1]) | Selectivity Class DYRK1A vs. CLK1 (DYRK1A) | Selectivity Class DYRK1A vs. DYRK1B (DYRK1A) | IC50 (DYRK1A; read-out: IC50 on DYRK1A (most potent DYRK1A inhibitors)) | IC50 (CLK1; IC50 class A to E) | IC50 (CLK1; [2]) | Structure (SMILES)
5 to 10 nM | 5 to 10 nM | II (ratio between 2 and 10 fold) | II (ratio between 2 and 10 fold) | ≤ 10 nM | 25 to 50 nM | 25 to 50 nM | CC(C)C[C@H](CO)NC1=N/C(=C\c2ccc3nccnc3c2)C(=O)N1 [Compound 9, (4Z)-2-[[(1R)-1-(hydroxymethyl)-3-methyl-butyl]amino]-4-(quinoxalin-6-ylmethylene)-1H-imidazol-5-one]
 | > 50 nM | IV (ratio between 0.1 and 0.5 fold) | III (ratio between 0.5 and 2 fold) |  |  | > 50 nM | COC[C@H](NC1=N/C(=C\c2ccc3cnccc3c2)C(=O)N1)c1ccccc1 [Compound 63, (4Z)-4-(6-isoquinolylmethylene)-2-[[(1R)-2-methoxy-1-phenyl-ethyl]amino]-1H-imidazol-5-one]
 | > 50 nM | IV (ratio between 0.1 and 0.5 fold) | III (ratio between 0.5 and 2 fold) |  |  | > 50 nM | O=C1NC(NCC2CCCCC2)=N/C1=C\c1ccc2cnccc2c1 [Compound 58, (4Z)-2-(Cyclohexylmethylamino)-4-(6-isoquinolylmethylene)-1H-imidazol-5-one]
 | > 50 nM | III (ratio between 0.5 and 2 fold) | II (ratio between 2 and 10 fold) |  |  | > 50 nM | O=C1NC(NC2CCCCC2)=N/C1=C\c1ccc2ncncc2c1 [Compound 76, (4Z)-2-(cyclohexylamino)-4-(quinazolin-6-ylmethylene)-1H-imidazol-5-one]
 | > 50 nM | III (ratio between 0.5 and 2 fold) | III (ratio between 0.5 and 2 fold) |  |  | > 50 nM | CC(C)C[C@H](CO)NC1=N/C(=C\c2ccc3cnccc3c2)C(=O)N1 [Compound 59, (4Z)-2-[[(1R)-1-(hydroxymethyl)-3-methyl-butyl]amino]-4-(6-isoquinolylmethylene)-1H-imidazol-5-one]
 | > 50 nM | III (ratio between 0.5 and 2 fold) | III (ratio between 0.5 and 2 fold) |  |  | > 50 nM | CC(C)C[C@@H](CF)NC1=N/C(=C\c2ccc3nccnc3c2)C(=O)N1 [Compound 15, (4Z)-2-[[(1S)-1-(Fluoromethyl)-3-methyl-butyl]amino]-4-(quinoxalin-6-ylmethylene)-1H-imidazol-5-one]
 | > 50 nM | III (ratio between 0.5 and 2 fold) | II (ratio between 2 and 10 fold) |  |  | > 50 nM | O=C1NC(NC23CC4CC(CC(C4)C2)C3)=N/C1=C\c1ccc2ncncc2c1 [Compound 68, (4Z)-2-(1-adamantylamino)-4-(quinazolin-6-ylmethylene)-1H-imidazol-5-one]
 | 25 to 50 nM | III (ratio between 0.5 and 2 fold) | II (ratio between 2 and 10 fold) |  |  | > 50 nM | NC[C@@H](NC1=N/C(=C\c2ccc3nccnc3c2)C(=O)N1)c1ccccc1 [Compound 29, (4Z)-2-[[(1S)-2-Amino-1-phenyl-ethyl]amino]-4-(quinoxalin-6-ylmethylene)-1H-imidazol-5-one dihydrochloride]
 | > 50 nM | III (ratio between 0.5 and 2 fold) | III (ratio between 0.5 and 2 fold) |  |  | > 50 nM | O=C1NC(N[C@@H]2CCCOC2)=N/C1=C\c1ccc2cnccc2c1 [Compound 67, (4Z)-4-(6-isoquinolylmethylene)-2-[[(3R)-tetrahydropyran-3-yl]amino]-1H-imidazol-5-one]
 | > 50 nM | III (ratio between 0.5 and 2 fold) | II (ratio between 2 and 10 fold) |  |  | > 50 nM | Cn1ccc(NC2=N/C(=C\c3ccc4ncccc4c3)C(=O)N2)n1 [Compound 54, (4Z)-2-[(1-methylpyrazol-3-yl)amino]-4-(6-quinolylmethylene)-1H-imidazol-5-one]
 | > 50 nM | III (ratio between 0.5 and 2 fold) | II (ratio between 2 and 10 fold) |  |  | > 50 nM | O=C1NC(NC[C@H](O)c2ccccc2)=N/C1=C\c1ccc2nccnc2c1 [Compound 27, (4Z)-2-[[(2R)-2-hydroxy-2-phenyl-ethyl]amino]-4-(quinoxalin-6-ylmethylene)-1H-imidazol-5-one]
 | > 50 nM | III (ratio between 0.5 and 2 fold) | II (ratio between 2 and 10 fold) |  |  | > 50 nM | O=C1NC(NCC2CCCCC2)=N/C1=C\c1ccc2nccnc2c1 [Compound 3, (4Z)-2-(cyclohexylmethylamino)-4-(quinoxalin-6-ylmethylene)-1H-imidazol-5-one]
 | > 50 nM | III (ratio between 0.5 and 2 fold) | II (ratio between 2 and 10 fold) |  |  | > 50 nM | Cn1ccc(NC2=N/C(=C\c3ccc4nccnc4c3)C(=O)N2)n1 [Compound 34, (4Z)-2-[(1-methylpyrazol-3-yl)amino]-4-(quinoxalin-6-ylmethylene)-1H-imidazol-5-one]
 | > 50 nM | III (ratio between 0.5 and 2 fold) | II (ratio between 2 and 10 fold) |  |  | > 50 nM | CO[C@H]1CCC[C@@H]1NC1=N/C(=C\c2ccc3nccnc3c2)C(=O)N1 [Compound 5, (4Z)-2-[[(1S,2S)-2-Methoxycyclopentyl]amino]-4-(quinoxalin-6-ylmethylene)-1H-imidazol-5-one]
 | 25 to 50 nM | II (ratio between 2 and 10 fold) | II (ratio between 2 and 10 fold) |  |  | > 50 nM | CN1CCN(c2ccc(NC3=N/C(=C\c4ccc5nccnc5c4)C(=O)N3)cc2)CC1 [Compound 33, (4Z)-2-[4-(4-Methylpiperazin-1-yl)anilino]-4-(quinoxalin-6-ylmethylene)-1H-imidazol-5-one]
 | > 50 nM | III (ratio between 0.5 and 2 fold) | IV (ratio between 0.1 and 0.5 fold) |  |  | > 50 nM | O=C1NC(N[C@@H]2CCOC2)=N/C1=C\c1ccc2cnccc2c1 [Compound 66, (4Z)-4-(6-Isoquinolylmethylene)-2-[[(3R)-tetrahydrofuran-3-yl]amino]-1H-imidazol-5-one]
 | > 50 nM | III (ratio between 0.5 and 2 fold) | II (ratio between 2 and 10 fold) |  |  | > 50 nM | O=C1NC(NC2CCCCCC2)=N/C1=C\c1ccc2ncccc2c1 [Compound 44, (4Z)-2-(cycloheptylamino)-4-(6-quinolylmethylene)-1H-imidazol-5-one]
 | > 50 nM | III (ratio between 0.5 and 2 fold) | IV (ratio between 0.1 and 0.5 fold) |  |  | > 50 nM | CN1C(=O)/C(=C/c2ccc3cnccc3c2)N=C1NC1CCCCC1 [Compound 86, (5Z)-2-(Cyclohexylamino)-3-methyl-5-(isoquinolin-6-ylmethylene)imidazol-4-one]
 | > 50 nM | II (ratio between 2 and 10 fold) | II (ratio between 2 and 10 fold) |  |  | > 50 nM | O=C1NC(NC2CCCCCC2)=N/C1=C\c1ccc2ncncc2c1 [Compound 77, (4Z)-2-(cycloheptylamino)-4-(quinazolin-6-ylmethylene)-1H-imidazol-5-one]
